Test results from patent publication US12528816B2, “Substituted imidazo [1,2-b] pyridazines and [1, 2, 4] triazolo [ 4,3-b] pyridazines as camkii inhibitors” (Cardurion Pharmaceuticals, INC., priority 2020, dated 2026).

target: T1, human CaMKIIδ (Homo sapiens, UniProt Q13557); assay: Evaluation of in vitro CaMKII inhibitory activity (binding assay, TR-FRET); conditions: not given
T1 construct: Full-length, glutathione-S-transferase(GST)-tagged, human CaMKIIδ was purchased from Carna Biosciences; purchased Carna Biosciences (CaMKIIδ); Wako Pure Chemical Industries (calmodulin) 02-111
Outline: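 Inhibitors, in eight concentrations of 4-fold dilution, were incubated 1 h at room temperature with a protein–fluorescent probe premix preformed 30 min on ice, containing calmodulin and terbium anti-GST antibody. Displacement read by TR-FRET in duplicate; IC50 by logistic fitting.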

Q: Which IC50 does the source give for C[C@@H](Cn1cncn1)Oc1cc(-c2ccn3ncc(-c4cc(F)ccc4C#N)c3n2)ccn1 [compound 286] here?
A: Its IC50 is under 0.01 µM.

same assay, conditions: human CaMKIIδ, TR-FRET binding assay; class symbols A/B/C; read-out: Act (CaMKII inhibitory activity, binding assay)

Q: With COC(=O)c1cccc(-n2cnc3ccc(-c4ccc(F)c(O[C@@H](C)Cn5cnnn5)c4)nc32)c1 [compound 13] as the molecule, how does the IC50 read?
A: The IC50 was under 0.01 µM.

Q: How did the IC50 turn out when C[C@@H](Cn1cnnn1)Oc1cc(-c2ccn3ncc(-c4ccccc4)c3n2)ccc1F [compound 5] was run?
A: The IC50 was under 0.01 µM.

Q: For Cc1c(-c2cnn3ccc(-c4ccc(F)c(O[C@@H](C)Cn5cnnn5)c4)nc23)cnn1C [compound 143], which IC50 is on record?
A: Its IC50 is under 0.01 µM.

Q: Which IC50 does the source give for C[C@@H](Cn1cnnn1)Oc1cccc(-c2ccn3ncc(-c4cccc(C(=O)NC5CC(=O)N(C)C5)c4)c3n2)c1 (stereo partly drawn) [compound 97, N-(1-methyl-5-oxopyrrolidin-3-yl)-3-[5-(3-{[(2S)-1-(1H-tetrazol-1-yl)propan-2-yl]oxy}phenyl)pyrazolo[1,5-a]pyrimidin-3-yl]benzamide] here?
A: Its IC50 is under 0.01 µM.

Q: With C[C@@H](Cn1cnnn1)Oc1cc(-c2ccc3ncc(-c4cn(CC(=O)OCc5ccccc5)nc4C#N)n3n2)ccc1F [compound 124] as the molecule, how does the IC50 read?
A: Its IC50 is 0.01 to 0.1 µM.

Q: For COc1cc(F)cc(-c2cnc3ccc(-c4cccc(N[C@@H](C)Cn5cnnn5)n4)nn23)c1C#N [compound 480], which IC50 is on record?
A: Its IC50 is under 0.01 µM.

Q: C[C@@H](Cn1cnnn1)Oc1cccc(-c2ccn3ncc(-c4cccc(C(=O)NCCn5cncn5)c4)c3n2)c1 [compound 96] was tested. Which IC50 did it give?
A: Its IC50 is under 0.01 µM.

Q: With C[C@@H](Cn1cnnn1)Oc1cc(-c2ccn3ncc(-c4cccc(F)c4C(N)=O)c3n2)ccc1F [compound 155] as the molecule, how does the IC50 read?
A: The IC50 was 0.01 to 0.1 µM.

Q: CC(=O)NCCCOc1cccc(-c2cnc3ccc(-c4ccc(F)c(O[C@@H](C)Cn5cnnn5)c4)nn23)c1C#N [compound 204] was tested. Which IC50 did it give?
A: The IC50 was under 0.01 µM.

Q: Which IC50 does the source give for C[C@@H](Cn1cnnn1)Oc1cc(-c2ccn3ncc(-c4cccc(OCC5CC5)c4)c3n2)ccc1F [compound 54] here?
A: Its IC50 is 0.01 to 0.1 µM.

Q: With COCCOc1ccccc1-c1cnn2ccc(-c3ccc(F)c(O[C@@H](C)Cn4cnnn4)c3)nc12 [compound 43] as the molecule, how does the IC50 read?
A: The IC50 was under 0.01 µM.

Q: How did the IC50 turn out when C[C@@H](Cn1cnnn1)Oc1cccc(-c2ccn3ncc(-c4cccc(C(=O)NCCCCO)c4)c3n2)c1 [compound 79] was run?
A: The IC50 was under 0.01 µM.

Q: For C[C@@H](Cn1cnnn1)Oc1cc(-c2ccc3ncc(-c4cn(CCCO)nc4C#N)n3n2)ccc1F [compound 222], which IC50 is on record?
A: The IC50 was 0.01 to 0.1 µM.

Q: Which IC50 does the source give for COCCCNC(=O)Cn1cc(-c2cnc3ccc(-c4ccc(F)c(O[C@@H](C)Cn5cnnn5)c4)nn23)c(C#N)n1 [compound 126] here?
A: Its IC50 is over 0.1 µM.

Q: With CC(=O)Nc1ccccc1-c1cnn2ccc(-c3ccc(F)c(O[C@@H](C)Cn4cnnn4)c3)nc12 [compound 39] as the molecule, how does the IC50 read?
A: The IC50 was over 0.1 µM.

Q: How did the IC50 turn out when C[C@@H](Cn1cnnn1)Oc1cc(-c2ccc3ncc(-c4cccc(OCC5CCOCC5)c4C#N)n3n2)ccc1F [compound 203] was run?
A: The IC50 was under 0.01 µM.

Q: C[C@@H](Cn1cnnn1)Oc1cc(-c2ccc3ncc(-c4cccc(OCCCN5CCOCC5)c4C#N)n3n2)ccc1F [compound 171] was tested. Which IC50 did it give?
A: The IC50 was under 0.01 µM.

Q: For CC(C)CCNC(=O)c1cccc(-c2cnn3ccc(-c4cccc(O[C@@H](C)Cn5cnnn5)c4)nc23)c1 [compound 64], which IC50 is on record?
A: The IC50 was under 0.01 µM.

Q: How did the IC50 turn out when C[C@@H](Cn1cnnn1)Oc1cccc(-c2ccn3ncc(-c4cccc(C(=O)NC5CN(Cc6ccccc6)C5)c4)c3n2)c1 [compound 86] was run?
A: Its IC50 is under 0.01 µM.

Q: For C[C@@H](Cn1cnnn1)Oc1cc(-c2ccn3ncc(-c4ccc(N5CCOCC5)cc4)c3n2)ccc1F [compound 49], which IC50 is on record?
A: The IC50 was 0.01 to 0.1 µM.

Q: CCN(CC)CCNC(=O)c1cccc(-n2cnc3ccc(-c4ccc(C#N)c(O[C@@H](C)Cn5cnnn5)c4)nc32)c1 [compound 11] was tested. Which IC50 did it give?
A: Its IC50 is over 0.1 µM.

Q: With C[C@@H](Cn1cnnn1)Oc1cc(-c2ccc3ncn(-c4ncn(C)c4C#N)c3n2)ccc1F [Example 173, 4-[5-(4-fluoro-3-{[(2S)-1-(1H-tetrazol-1-yl)propan-2-yl]oxy}phenyl)-3H-imidazo[4,5-b]pyridin-3-yl]-1-methyl-1H-imidazole-5-carbonitrile] as the molecule, how does the IC50 read?
A: Its IC50 is under 0.01 µM.

Q: C[C@@H](Cn1cnnn1)Oc1cc(-c2ccc3ncc(-c4cccc(OCCN5C(=O)CCC5=O)c4C#N)n3n2)ccc1F [compound 211] was tested. Which IC50 did it give?
A: Its IC50 is under 0.01 µM.

Q: How did the IC50 turn out when C[C@@H](Cn1cnnn1)Oc1cc(-c2ccn3ncc(-c4cccc(C(=O)N5CCC(N6CCOCC6)CC5)c4)c3n2)ccc1F [compound 10] was run?
A: The IC50 was under 0.01 µM.

Q: With C[C@@H](Cn1cnnn1)Oc1cc(-c2ccn3ncc(-c4ccn(CC#N)n4)c3n2)ccc1F [compound 161] as the molecule, how does the IC50 read?
A: Its IC50 is under 0.01 µM.

Q: C[C@@H](Cn1cnnn1)Oc1cc(-c2ccn3ncc(-c4ccccc4C=O)c3n2)ccc1F [compound 123] was tested. Which IC50 did it give?
A: The IC50 was under 0.01 µM.

Q: With COCCN1C(=O)c2cccc(-n3cnc4ccc(-c5ccc(F)c(O[C@@H](C)Cn6cnnn6)c5)nc43)c2C1=O [compound 192] as the molecule, how does the IC50 read?
A: Its IC50 is over 0.1 µM.

same assay, conditions: in vitro CaMKII inhibitory activity (binding assay), human CaMKIIδ; read-out: Act

Q: Which IC50 does the source give for C[C@@H](Cn1cnnn1)Oc1ccnc(-c2ccc3ncc(-c4cc(F)ccc4C#N)n3n2)c1 [Example 311, 4-fluoro-2-[6-(4-{[(2S)-1-(1H-tetrazol-1-yl)propan-2-yl]oxy}pyridin-2-yl)imidazo[1,2-b]pyridazin-3-yl]benzonitrile] here?
A: Its IC50 is under 0.01 µM.

Q: C[C@@H](Cn1cnnn1)Oc1cc(-c2ccc3ncc(-c4cc(F)ccc4C#N)n3n2)ncn1 [compound 299] was tested. Which IC50 did it give?
A: Its IC50 is 0.01 to 0.1 µM.

Q: For CC(=O)c1cccc(-c2cnc3ccc(-c4cccc(O[C@@H](C)Cn5cnnn5)c4)nn23)c1C#N [Example 426, 2-acetyl-6-[6-(3-{[(2S)-1-(1H-tetrazol-1-yl)propan-2-yl]oxy}phenyl)imidazo[1,2-b]pyridazin-3-yl]benzonitrile], which IC50 is on record?
A: Its IC50 is under 0.01 µM.

Q: Which IC50 does the source give for C[C@@H](Cn1cnnn1)Oc1cc(-c2ccn3ncc(-c4nccnc4C#N)c3n2)ccc1F [compound 294] here?
A: The IC50 was under 0.01 µM.

Q: Which IC50 does the source give for C[C@@H](Cn1cnnn1)Oc1cccc(-c2ccc3ncc(-c4ccc(C#N)c(F)n4)n3n2)c1 [compound 468] here?
A: The IC50 was under 0.01 µM.

Q: For C[C@@H](Cn1cnnn1)Oc1cccc(-c2ccc3ncc(-c4nccc(NCC(F)(F)F)c4C#N)n3n2)c1 [compound 369], which IC50 is on record?
A: The IC50 was 0.01 to 0.1 µM.

Q: Which IC50 does the source give for C[C@@H](Cn1cnnn1)Oc1cc(-c2ccc3ncc(-c4cccc(N=S5(=O)CCCC5)c4C#N)n3n2)ccc1F [compound 258] here?
A: Its IC50 is under 0.01 µM.

Q: Which IC50 does the source give for COc1ncc(C)cc1-c1cnc2ccc(-c3cccc(O[C@@H](C)Cn4cnnn4)c3)nn12 [compound 327] here?
A: The IC50 was under 0.01 µM.

Q: CCOc1nccc(-c2cnc3ccc(-c4cccc(O[C@@H](C)Cn5cnnn5)c4)nn23)c1C#N [compound 261] was tested. Which IC50 did it give?
A: Its IC50 is under 0.01 µM.

Q: How did the IC50 turn out when COc1ncc(Cl)cc1-c1cnc2ccc(-c3cccc(O[C@@H](C)Cn4cnnn4)c3)nn12 [compound 323] was run?
A: Its IC50 is under 0.01 µM.

Q: With C[C@@H](Cn1cnnn1)Oc1cccc(-c2ccc3ncc(-c4cc(F)c[nH]c4=O)n3n2)c1 [compound 324] as the molecule, how does the IC50 read?
A: Its IC50 is under 0.01 µM.

Q: C[C@@H](Cn1cnnn1)Oc1cccc(-c2ccc3ncc(-c4ccccc4CN=S(C)(C)=O)n3n2)c1 [compound 306] was tested. Which IC50 did it give?
A: Its IC50 is 0.01 to 0.1 µM.

Q: Which IC50 does the source give for C[C@@H](Cn1cnnn1)Oc1cccc(-c2ccc3ncc(-c4nccc(OCF)c4C#N)n3n2)c1 [Example 466, 4-(fluoromethoxy)-2-[6-(3-{[(2S)-1-(1H-tetrazol-1-yl)propan-2-yl]oxy}phenyl)imidazo[1,2-b]pyridazin-3-yl]pyridine-3-carbonitrile] here?
A: The IC50 was under 0.01 µM.

Q: C[C@@H](Cn1cnnn1)Oc1cccc(-c2ccc3ncn(-c4ncccc4C#N)c3n2)c1 [Example 284, 2-[5-(3-{[(2S)-1-(1H-tetrazol-1-yl)propan-2-yl]oxy}phenyl)-3H-imidazo[4,5-b]pyridin-3-yl]pyridine-3-carbonitrile] was tested. Which IC50 did it give?
A: The IC50 was under 0.01 µM.

Q: Which IC50 does the source give for C[C@@H](Cn1cnnn1)Oc1cccc(-c2ccc3ncc(-c4nnccc4C#N)n3n2)c1 [compound 280] here?
A: Its IC50 is under 0.01 µM.

Q: C[C@@H](Cn1cnnn1)Oc1cc(-c2ccc3ncc(-c4cc(N=S5(=O)CCCC5)ccc4C#N)n3n2)ccc1F [compound 264] was tested. Which IC50 did it give?
A: Its IC50 is over 0.1 µM.

Q: How did the IC50 turn out when COc1ccnc(-c2cnc3ccc(-c4cccc(O[C@@H](C)Cn5cnnn5)c4)nn23)c1C#N [Example 300, 4-methoxy-2-[6-(3-{[(2S)-1-(1H-tetrazol-1-yl)propan-2-yl]oxy}phenyl)imidazo[1,2-b]pyridazin-3-yl]pyridine-3-carbonitrile] was run?
A: The IC50 was under 0.01 µM.

Q: How did the IC50 turn out when COc1cc(F)cc(-n2cnc3ccc(-c4cccc(O[C@@H](C)Cn5cnnn5)n4)nc32)c1C#N [Example 393, 4-fluoro-2-methoxy-6-[5-(6-{[(2S)-1-(1H-tetrazol-1-yl)propan-2-yl]oxy}pyridin-2-yl)-3H-imidazo[4,5-b]pyridin-3-yl]benzonitrile] was run?
A: Its IC50 is under 0.01 µM.

Q: How did the IC50 turn out when C[C@@H](Cn1cnnn1)Oc1cccc(-c2ccc3ncn(-c4cc(F)cc(C(F)F)c4C#N)c3n2)n1 [compound 407] was run?
A: The IC50 was 0.01 to 0.1 µM.

Q: With C[C@@H](Cn1cnnn1)Oc1cc(-c2ccc3ncc(-c4c[n+]([O-])ccc4C#N)n3n2)ccc1F [Example 269, (S)-3-(6-(3-((1-(1H-tetrazol-1-yl)propan-2-yl)oxy)-4-fluorophenyl)imidazo[1,2-b]pyridazin-3-yl)-4-cyanopyridine N-oxide] as the molecule, how does the IC50 read?
A: Its IC50 is under 0.01 µM.

Q: How did the IC50 turn out when C[C@@H](Cn1cnnn1)Oc1cccc(-c2ccc3ncc(-c4cc(F)cn(CC(F)(F)F)c4=O)n3n2)c1 [compound 339] was run?
A: The IC50 was under 0.01 µM.

Q: For C[C@@H](Cn1cnnn1)Oc1cc(-c2ccc3ncc(-c4[nH]ccc(=O)c4C#N)n3n2)ccc1F [compound 431, 2-[6-(4-fluoro-3-{[(2S)-1-(1H-tetrazol-1-yl)propan-2-yl]oxy}phenyl)imidazo[1,2-b]pyridazin-3-yl]-4-oxo-1,4-dihydropyridine-3-carbonitrile], which IC50 is on record?
A: Its IC50 is over 0.1 µM.

Q: How did the IC50 turn out when C[C@@H](Cn1cnnn1)Oc1ccc(F)c(-c2ccc3ncc(-c4ncccc4C#N)n3n2)c1 [compound 293] was run?
A: The IC50 was 0.01 to 0.1 µM.

Q: For C[C@@H](Cn1cnnn1)Oc1cc(-c2ccc3ncc(-c4cc(F)ccc4C#N)n3n2)ccc1F [compound 246], which IC50 is on record?
A: The IC50 was under 0.01 µM.

Q: For Cc1cc(-c2cnc3ccc(-c4cccc(O[C@@H](C)Cn5cnnn5)c4)nn23)c(C#N)cn1 [compound 333], which IC50 is on record?
A: The IC50 was under 0.01 µM.

Q: Which IC50 does the source give for Cc1ccc(C#N)c(-c2cnc3ccc(-c4cccc(O[C@@H](C)Cn5cnnn5)c4)nn23)n1 [compound 278] here?
A: Its IC50 is under 0.01 µM.

Q: C[C@@H](Cn1cnnn1)Oc1cccc(-c2ccc3ncc(-c4cc(Cl)c[nH]c4=O)n3n2)c1 [compound 328] was tested. Which IC50 did it give?
A: The IC50 was under 0.01 µM.
